We go through 5 molecules from US20110053913A1, “Methods and Therapies for Alleviating Pain” (priority 2009, published 2011).

The test system of test [1] is rats. The experiment in a line: Analgesic effect of ultra-low dose alpha-2 receptor antagonist administered alone, tail flick and paw pressure tests. It counts as in vivo, rat. On the procedure:
Baseline latencies were obtained every 5 minutes for 15 minutes prior to injection of either vehicle (saline 0.9%) or atipemazole and tested every 30 minutes for 3 hours. Data were converted to % maximum possible effect.
(§1) Experiments were conducted using adult male Sprague-Dawley rats (Charles River, St. Constant, QC, Canada) weighing between 200-250 grams. Animals were housed individually in standard laboratory cages, maintained on a 12-hour light/dark cycle, and provided with food and water ad libitum. The surgical placement of chronic indwelling intrathecal catheters (polyethylene PE 10 tubing, 7.5 cm) into the spinal subarachnoid space was made under 4% halothane anesthesia, using the method of Yaksh and Rudy Physiol. Behav. 1976 7:1032-1036). Specifically, the anesthetized animal was placed prone in a stereotaxic frame, a small incision made at the back of the neck, and the atlanto-occipital membrane overlying the cisterna magna was exposed and punctured with a blunt needle. The catheter was inserted through the cisternal opening and slowly advanced caudally to position its tip at the lumbar enlargement. The rostral end of the catheter was exteriorized at the top of the head and the wound closed with sutures. Animals were allowed 3-4 days recovery from surgery and only those free from neurological deficits, such as the hindlimb or forelimb paralysis or gross motor dysfunction, were included in the study. All drugs were injected intrathecally as solutions dissolved in physiological saline (0.9%) through the exteriorized portion of the catheter at a volume of 10 μl followed by a 10 μl volume of 0.9% saline to flush the catheter.
(§2) The tail flick test (D'amour & Smith, J. Pharmacol. Exp. Ther. 1941 72:74-79) was used to measure the response to a thermal nociceptive stimulus. Radiant heat was applied to the distal third of the animal's tail and the response latency for tail withdrawal from the source was recorded using an analgesia meter (Owen et al., J. Pharmacol. Methods 1981 6:33-37)). The stimulus intensity was adjusted to yield baseline response latencies between 2-3 seconds. To minimize tail damage, a cutoff of 10 seconds was used as an indicator of maximum antinociception.
(§3) The paw pressure test (Loomis et al., Pharm. Biochem. 1987 26:131-139) was used to measure the response to a mechanical nociceptive stimulus. Pressure was applied to the dorsal surface of the hind paw using an inverted air-filled syringe connected to a gauge and the value at which the animal withdrew its paw was recorded. A maximum cutoff pressure of 300 mmHg was used to avoid tissue damage. Previous experience has established that there is no significant interaction between the tail flick and paw pressure tests (Loomis et al., Can. J. Physiol. Pharmacol. 1985 63:656-662).
The analgesic effect of an ultra-low dose of an alpha-2 receptor antagonist administered alone was examined. Atipemazole was administered systemically, in three successive administrations, at 20 ng/kg or 200 ng/kg.
The analgesic effect of an ultra-low dose of an alpha-2A receptor antagonist administered alone was also examined. BRL 44408 was administered intrathecally, in a single administration, at 1.65 ng. In another study, three successive doses of BRL 44408 (1.65 ng) were administered intrathecally.
For the in vivo studies, tail flick and paw pressure values were converted to a maximum percentage effect (M.P.E.): M.P.E.=100×[post-drug response−baseline response]/[maximum response−baseline response]. Data represented in the figures are expressed as mean (±S.E.M.). The ED50 values were determined using a non-linear regression analysis (Prism 2, GraphPad Software Inc., San Diego, Calif., USA). Statistical significance (p<0.05, 0.01. or 0.001) was determined using a one-way analysis of variance followed by a Student Newman-Keuls post hoc test for multiple comparisons between groups.

Test [2] concerns rats. The test can be described thus: Potentiation of morphine analgesia and acute morphine tolerance, tail flick and paw pressure tests. The test is classed as in vivo, rat. Here is the method: as §1, §2, §3
The effects of ultra-low doses of atipemazole, yohimbine, idazoxan and mirtazapine, as well as the selective alpha-2A receptor antagonist BRL 44408, were also tested for potentiation of acute analgesic action of spinal or subcutaneous morphine. Acute opioid tolerance was induced by three serial intrathecal morphine injections (15 μg) or systemic morphine injections (2.5 mg/kg sc). Rats were administered morphine alone, a combination of morphine (15 μg intrathecally or 2.5 mg/kg sc) and an ultra low dose of atipemazole, yohimbine, idazoxan, mirtazapine, or BRL 44408. Results for atipemazole are depicted in FIGS. 2A, 2B, 11A and 11B. Results for yohimbine are depicted in FIGS. 6A and 6B. Results for idazoxan are depicted in FIGS. 10A and 10B. Results for mirtazapine are depicted in FIGS. 8A and 8B. Results for BRL 44408 are depicted in FIGS. 14A and 14B.
For the in vivo studies, tail flick and paw pressure values were converted to a maximum percentage effect (M.P.E.): M.P.E.=100×[post-drug response−baseline response]/[maximum response−baseline response]. Data represented in the figures are expressed as mean (±S.E.M.). The ED50 values were determined using a non-linear regression analysis (Prism 2, GraphPad Software Inc., San Diego, Calif., USA). […]

Test [3] concerns rats. The test can be described thus: Formalin test, persistent inflammatory pain model. The test is classed as in vivo, rat. The settings on record: atipemazole alone sc 20 minutes prior to 1% formalin into hind paw; dark phase; N=4; FIGS. 15A, 15B. On the procedure: In a further experiment, the analgesic effect of atipemazole was examined using the formalin test, a persistent inflammatory pain model. The experiment was conducted with rats during the dark phase of the light-dark cycle. Rats were administered 1% formalin and pain behaviour was assessed by a weighted score. Atipemazole, morphine, or vehicle was injected by subcutaneous injection 20 minutes prior to formalin injection into the plantar surface of the rat hind paw. The behavior was evaluated in 5 min intervals, and the severity of the response was determined.
The formalin test is a widely used tonic model of continuous pain resulting from formalin-induced tissue injury. It is a useful model, particularly for the screening of novel compounds, since it encompasses inflammatory, neurogenic, and central mechanisms of nociception. We used 1% formalin and assessed pain behavior by a weighted score. […]
Briefly, the nociceptive behavior was assessed as follows: (1) no favouring of the injected hind paw, (2) favouring, (3) complete elevation of the hind paw from the floor, and (4) licking or flinching. The behavior was evaluated in 5 min intervals, and the severity of the response was determined by the following formula: (0×the time spent in category 1, 1×the time spent in category 2, 2×the time spent in category 3, 3×the time spent in category 4).

A further test concerns spinal alpha-2 receptors. The experiment in a line: Inhibition of spinal clonidine analgesia by alpha-2 receptor antagonists (tail flick / paw pressure). The test is classed as in vivo, rat. The settings on record: tail flick test, FIG. 12. On the procedure: Experiments were conducted using adult male Sprague-Dawley rats (Charles River, St. Constant, QC, Canada) weighing between 200-250 grams. Animals were housed individually in standard laboratory cages, maintained on a 12-hour light/dark cycle, and provided with food and water ad libitum. The surgical placement of chronic indwelling intrathecal catheters (polyethylene PE 10 tubing, 7.5 cm) into the spinal subarachnoid space was made under 4% halothane anesthesia, using the method of Yaksh and Rudy Physiol. Behav. 1976 7:1032-1036). […]
The tail flick test (D'amour & Smith, J. Pharmacol. Exp. Ther. 1941 72:74-79) was used to measure the response to a thermal nociceptive stimulus. Radiant heat was applied to the distal third of the animal's tail and the response latency for tail withdrawal from the source was recorded using an analgesia meter (Owen et al., J. Pharmacol. Methods 1981 6:33-37)). […]
The paw pressure test (Loomis et al., Pharm. Biochem. 1987 26:131-139) was used to measure the response to a mechanical nociceptive stimulus. Pressure was applied to the dorsal surface of the hind paw using an inverted air-filled syringe connected to a gauge and the value at which the animal withdrew its paw was recorded. […]
On the technique in general: Hot-plate and tail-flick tests time the reaction to a heat stimulus.

The subject of test [4] is rats. As to conditions: morphine, cited from earlier work.

As for `COC(=O)[C@@H]1[C@H]2C[C@H]3c4[nH]c5ccccc5c4CCN3C[C@@H]2CC[C@@H]1O` [yohimbine], in the test with rats [1] (yohimbine 0.024 ng intrathecally alone at 90 minute intervals, FIGS. 6A, 6B), the “analgesic response, antagonist alone, repeated administration” value (from here on “analgesic response, antagonist alone”) is “no significant analgesic response”.

Regarding `CCC1(c2cnc[nH]2)Cc2ccccc2C1` [atipemazole], in the test on rats [2] (atipemazole 0.8 ng with morphine 15 μg intrathecally, three injections at 90 minute intervals, FIGS. 2A, 2B), the “effect on acute tolerance to the analgesic actions of spinal morphine” value is recorded as “prevented the decline of the analgesic effect of morphine”. For the same molecule, the “effect on acute morphine analgesia” value in the test with rats [2] (atipemazole 0.8 or 0.08 ng with morphine 15 μg intrathecally, FIGS. 3A, 3B) is recorded as “potentiates opioid analgesia”. For the same molecule, the “effect on acute tolerance to morphine (loss of response)” value in the test on rats [2] (atipemazole 20 or 200 ng/kg sc with morphine 2.5 mg/kg sc, three injections at 90 minute intervals, FIGS. 11A, 11B) is given as “significantly reduced the loss of response to morphine alone”. In the test on rats [3], the “analgesia in the formalin test (weighted pain score)” value is given as “as effective as morphine”. In addition, in the test with rats [1] (atipemazole 0.8 ng intrathecally alone at 90 minute intervals, FIGS. 2A, 2B), the “analgesic response, antagonist alone” value was “incremental but weak analgesic response”. Besides, in the test with rats [1] (atipemazole 0.8 ng intrathecally alone, FIGS. 3A, 3B), the “analgesic effect, antagonist alone” value was “weak, albeit insignificant, analgesic effect”. Further, in the test with rats [1] (atipemazole 200 ng/kg sc, rats on reverse light/dark cycle, administered during the dark phase, tested every 30 minutes for 3 hours), the “antinociceptive effect in the tail flick test, dark phase” value is listed as “did not produce a significant antinociceptive effect”. Also, the “analgesic response in the tail flick test, antagonist alone” value with rats [1] (atipemazole 20 and 200 ng/kg sc alone at 90 minute intervals, tail flick, FIG. 11A) is on record as “delayed analgesic response”.

In the case of `c1ccc2c(c1)OCC(C1=NCCN1)O2` (stereo not drawn) [idazoxan], the “analgesic response, antagonist alone” value in the test with rats [1] (idazoxan intrathecally alone, ultra-low dose, repeated) was “no significant analgesic response”.

On to `CC1c2ccccc2CN1CC1=NCCN1.O=C(O)/C=C\C(=O)O` (stereo not drawn) [BRL 44408, 2-[2H-(1-Methyl-1,3-dihydroisoindole)methyl]-4,5-dihydroimidazole maleate], for which the “antagonism of clonidine analgesia” value in the test with spinal alpha-2 receptors (BRL 44408 3.3 μg with clonidine 13.3 μg intrathecally) was “did not antagonize clonidine”; in the test on spinal alpha-2 receptors (BRL 44408 16.5 μg with clonidine 13.3 μg intrathecally) it was “antagonized clonidine analgesia”. For the same molecule, the “effect on morphine analgesia after a single administration” value with rats [2] (BRL 44408 1.65 ng with morphine 15 μg intrathecally once, relative to morphine alone, FIGS. 13A, 13B) is recorded as “significantly increased morphine analgesia”. Moreover, the “effect on analgesic action of morphine in the acute tolerance study” value in the test with rats [2] (BRL 44408 1.65 ng with morphine intrathecally, three injections at 90 minute intervals, FIGS. 14A, 14B) is on record as “increased the acute analgesic action of morphine”. Further, the “analgesia after a single administration, antagonist alone” value in the test with rats [1] (BRL 44408 1.65 ng intrathecally alone, single administration, relative to saline, FIGS. 13A, 13B) is on record as “significant analgesia, relative to saline administration, after 60 minutes”. Moreover, in the test with rats [1] (BRL 44408 1.65 ng intrathecally alone, single administration, FIGS. 13A, 13B), the “course and duration of analgesia after a single administration, antagonist alone” value is “increased and persisted for the duration of the study (180 minutes)”.

In the case of `CN1CC[C@]23c4c5ccc(O)c4O[C@H]2[C@@H](O)C=C[C@H]3[C@H]1C5` [morphine], the “analgesic response to repeated morphine” value with rats [2] (morphine 2.5 mg/kg sc alone, three injections at 90 minute intervals, both tests, FIGS. 11A, 11B) is “rapid decay of the analgesic response”. In addition, the “decline of the analgesic effect of morphine observed after the first injection” value in the test with rats [2] (three successive intrathecal doses of morphine 15 μg at 90 minute intervals, end of the 240 minute test period, FIGS. 2A, 2B) is reported as roughly 80%. The “ED50 dose during the dark phase” value in the test with rats [4] (dark phase of light-dark cycle) was 0.25 mg/kg. Further, the “ED50 dose during the light phase” value in the test on rats [4] (light phase of light-dark cycle) is 5 mg/kg. In the test on rats [4] (nociceptive testing), the “potency in the dark phase compared to the light phase” value is listed as 10 fold.
